The test has as its target Mcl-1. Put plainly: Binding of synthetic peptide to target protein by surface plasmon resonance (SPR, Biacore T200). The settings on record: immobilized Mcl-1, Table 53 (peptides from mRNA display), read-out: Binding evaluation result (KD). On the procedure: Preparation of Target Protein
A plasmid construct was prepared in which a gene containing the amino acid 1-172 portion of MCL-1 was introduced into plasmid pET28a, and a His6 tag, MBP, and a TEV protease recognition sequence were attached to the N terminal side thereof. This plasmid was transformed into E. coli strain BL21 (DE3) RIPL which was then cultured at 30° C. In a case where the O.D. reached 0.8, IPTG […] was added to induce large-scale expression, followed by culturing at 16° C. overnight. The recovered bacterial cells were suspended in Lysis Buffer A (25 mmol/L Tris (pH 7.5), 150 mmol/L NaCl), and then disrupted by sonication. This was followed by centrifugation at 15 krpm for 15 minutes. The supernatant after centrifugation was purified using a Ni-NTA resin (manufactured by QIAGEN GmbH). The sample adsorbed to the Ni-NTA resin was washed with Lysis Buffer A containing 15 mmol/L imidazole and then eluted with Lysis Buffer A containing 200 mmol/L imidazole. The sample was stored at −80° C. after substitution with Lysis buffer by dialysis.
Evaluation of Binding of Synthetic Peptide to Target Protein Using Surface Plasmon Resonance (SPR)
An SPR experiment for analyzing the interaction of a synthetic peptide with Mel-1 was carried out at 25° C. using Biacore T200 (manufactured by GE Healthcare Inc.). The synthetic peptide was added to the immobilized protein, and the interaction therebetween was evaluated.
A buffer obtained by adding dimethylformamide (DMF) or dimethylsulfoxide (DMSO) to a final concentration of 1 vol % to HBS-EP+ (manufactured by GE Healthcare Inc.) was used as a running buffer. Mcl-1 was immobilized on a Biacore Sensor Chip Series S Sensor Chip CM5 (manufactured by GE Healthcare Inc.) using an Amine Coupling Kit (manufactured by GE Healthcare Inc.). In order to measure the dissociation constant (KD), each synthetic peptide was added at multiple concentrations to obtain a sensorgram of binding to immobilized Mel-1.
The analysis of the obtained sensorgram was carried out using T200 evaluation software (manufactured by GE Healthcare Inc.). Solvent correction to DMF or DMSO was carried out, and then the KD was determined by equilibrium value analysis using a sensorgram obtained by subtracting the sensorgram to a flow cell in which Mcl-1 is not immobilized.
One having a KD of less than 50 μmol/L is denoted as A, and one having a KD of 50 μmol/L or more is denoted as B.
Binding of the synthetic peptide to the target protein was evaluated in the same manner as described above.
On the technique in general: Surface plasmon resonance follows binding to a sensor surface in real time, without labels.

Usually Kd stands for the constant that tells how readily two partners part at equilibrium. For `CC[C@H](C)[C@@H]1NC(=O)[C@H](CO)NC(=O)[C@H](CO)NC(=O)[C@H](CC(C)C)NC(=O)[C@H]([C@@H](C)O)NC(=O)[C@H]([C@@H](C)O)NC(=O)[C@@H]2CSC(=N2)c2cc(cs2)C[C@@H](C(N)=O)NC(=O)[C@H](CCCNC(=N)N)NC(=O)[C@H](CCCNC(=N)N)NC(=O)[C@H](CC(=O)O)NC(=O)[C@H](C(C)C)NC(=O)[C@H](CCC(N)=O)NC(=O)[C@H](CC(=O)O)NC(=O)CNC1=O` [a-6-5], the Kd is less than 50 µM. To `CC[C@H](C)[C@@H]1NC(=O)[C@H](CCC(N)=O)NC(=O)[C@H](CCCNC(=N)N)NC(=O)[C@H](CC(C)C)NC(=O)CNC(=O)[C@H](CC(=O)O)NC(=O)[C@H](C(C)C)NC(=O)[C@H](C(C)C)NC(=O)[C@H](CC(N)=O)NC(=O)[C@@H]2CCCN2C(=O)[C@@H]2CSC(=N2)c2cc(cs2)CC(C(N)=O)NC(=O)[C@H]([C@@H](C)O)NC(=O)[C@H](CC(=O)O)NC(=O)CNC1=O` (stereo partly drawn) [a-6-6] belongs less than 50 µM; to `CC(C)C[C@H](NC(=O)[C@H](CC(=O)O)NC(=O)[C@H](CCCCN)NC(=O)[C@@H](NC(=O)[C@H](C)NC(=O)[C@H](C)NC(=O)[C@H]1Cc2csc(c2)C2=N[C@@H](CS2)C(=O)N[C@@H](CC(=O)O)C(=O)N[C@@H](CO)C(=O)N[C@@H](Cc2ccc(O)cc2)C(=O)N1)C(C)C)C(=O)N[C@@H](CCC(=O)O)C(=O)N[C@@H](CC(N)=O)C(=O)N[C@@H](C)C(=O)N[C@@H](Cc1csc(C#N)c1)C(N)=O` [a-6-7], less than 50 µM.

Values taken from patent US11319347B2, “Peptide compound and method for producing same, composition for screening use, and method for selecting peptide compound” (FUJIFILM Corporation, priority 2017, dated 2022).
